± gives the expanded uncertainty stated by the source.
Key:
[1] = Liquid; for vapor or sublimation pressure: ebulliometry
[2] = refractive index (Na D-line) (dimensionless); conditions: 303.15 K; 101.33 kPa; Liquid; Standard Abbe refractometry

CC(C)(C)O [2-methylpropan-2-ol]
Conditions | mass density [kg/m3]
[1], 303.15 K, 101.33 kPa, vibrating tube | 775.37 ± 0.19

[1]
Conditions | vapor or sublimation pressure [kPa]
332.3 K | 37.4 ± 0.18
333.03 K | 38.69 ± 0.17
333.45 K | 39.34 ± 0.18
334.6 K | 41.37 ± 0.2
335.29 K | 42.93 ± 0.2
335.87 K | 43.85 ± 0.19
336.43 K | 45.01 ± 0.22
337.17 K | 46.69 ± 0.23
337.8 K | 48.06 ± 0.22
338.37 K | 49.27 ± 0.21
338.86 K | 50.27 ± 0.23
339.5 K | 51.81 ± 0.24
340.08 K | 53.17 ± 0.23
340.59 K | 54.25 ± 0.25
341.17 K | 55.83 ± 0.25
341.63 K | 56.78 ± 0.26
342.18 K | 58.37 ± 0.27
342.68 K | 59.61 ± 0.24
343.13 K | 60.61 ± 0.27
343.7 K | 62.3 ± 0.27
344.13 K | 63.27 ± 0.28
344.68 K | 64.99 ± 0.28
345.06 K | 65.81 ± 0.26
345.49 K | 67.05 ± 0.31
346.11 K | 69.05 ± 0.31
346.51 K | 70.21 ± 0.29
346.83 K | 71.11 ± 0.3
347.28 K | 72.45 ± 0.28
347.68 K | 73.43 ± 0.32
348.2 K | 75.35 ± 0.33
348.54 K | 76.17 ± 0.3
348.9 K | 77.42 ± 0.33
349.34 K | 78.76 ± 0.32
349.74 K | 80.07 ± 0.34
350.1 K | 81.3 ± 0.34
350.53 K | 82.71 ± 0.34
350.9 K | 83.96 ± 0.37
351.33 K | 85.66 ± 0.35
351.67 K | 86.64 ± 0.35
352.05 K | 88.15 ± 0.36
352.45 K | 89.39 ± 0.34
352.8 K | 90.67 ± 0.4
353.13 K | 92.07 ± 0.39
353.5 K | 93.39 ± 0.38
353.81 K | 94.63 ± 0.38
354.18 K | 95.95 ± 0.35
354.51 K | 97.04 ± 0.37
354.85 K | 98.36 ± 0.43
355.23 K | 100.07 ± 0.4
355.5 K | 100.88 ± 0.37
355.58 K | 101.32 ± 0.36
355.83 K | 102.22 ± 0.41
356.22 K | 103.92 ± 0.45
356.52 K | 105.27 ± 0.43
356.86 K | 106.62 ± 0.39
357.15 K | 107.71 ± 0.43
357.45 K | 109.12 ± 0.45
357.77 K | 110.47 ± 0.4
358.06 K | 111.51 ± 0.41
358.35 K | 112.83 ± 0.47
358.68 K | 114.36 ± 0.44
358.96 K | 115.48 ± 0.45
359.27 K | 117 ± 0.46
359.84 K | 119.53 ± 0.46
360.13 K | 120.87 ± 0.46
360.46 K | 122.36 ± 0.47
360.64 K | 123.08 ± 0.46
360.97 K | 124.73 ± 0.5
361.26 K | 126.15 ± 0.46
361.47 K | 126.96 ± 0.45
361.73 K | 128.2 ± 0.49
362.02 K | 129.63 ± 0.49
362.54 K | 132.15 ± 0.51
362.75 K | 133.36 ± 0.53
363.03 K | 134.71 ± 0.51
363.08 K | 134.81 ± 0.51
363.56 K | 137.4 ± 0.55
363.82 K | 138.8 ± 0.5
364.09 K | 140.03 ± 0.5
364.33 K | 141.29 ± 0.52
364.66 K | 142.96 ± 0.54
365.09 K | 145.34 ± 0.55
365.27 K | 146.36 ± 0.55
365.62 K | 148.18 ± 0.53
366.1 K | 150.66 ± 0.56
366.51 K | 153.08 ± 0.58
366.81 K | 154.69 ± 0.55
367.08 K | 156.16 ± 0.58
367.49 K | 158.58 ± 0.57
367.83 K | 160.39 ± 0.58
368.23 K | 162.82 ± 0.62

Conditions | refractive index
[2] | 1.382 ± 0.0007

Source: the NIST ThermoML archive (doi:10.1021/je0202073)
